Columns and labels:
mice [1] = assay: Pentobarbital induced sleep test; conditions: Mus musculus, read-out: ED50 (95% CI), Pentobarbital induced Sleeping test
[2] = tested on: maximal electro shock-induced seizure; assay: Maximal electro shock (MES) test; type: in vivo; conditions: Mus musculus, 0.5 h; mice, 30 min after administration; 60 Hz, 50 mA, 0.2 s; HLTE; read-out: ED50 (95% CI), MES test
Excerpt: (§1) Two useful seizure models (MES and PTZ) were organized for evaluation of the anticonvulsant activities of novel synthesized compounds. In these experiments, the capability of novel synthesized compounds to prevent the maximal electro shock-induced seizure and pentylenetetrazol-induced seizure were screened. MES test (60 Hz, 50 mA, 0.2 s) was done according to the method described by Toolabi et al. (2020). PTZ test was done Using the mothed described by Ranjbar-ekbatan et al. (2019). These experiments were applied 30 min after administration of the novel compounds. The number of HLTE (hind limb tonic extension) in the MES test and the number of dead animals in the PTZ test were counted ([30]–[32]).

mice [3] = assay: Open field test; type: in vivo; conditions: Mus musculus, ip, intraperitoneal, 30 min before test, total distance movement, read-out: ED50 (95% CI), Open field test
Method: To the assessment of the sedative effects and locomotor activities of the novel synthesized compounds, the open field test was performed. […] The total distance movement was recorded for 10 min by a digital camera and then was calculated by an automated tracking system (Ethovision XT software, Noldus, The Netherlands) ([24]).

mice [4] = assay: Grip strength test; type: in vivo; conditions: Mus musculus, 0.5 h, read-out: ED50 (95% CI), Grip strength test
Method: To assessment the muscle relaxant effects of novel synthesized compounds by measuring the maximum force applied to the digital force meter, the grip strength test was prepared. This assessment was guided using the modified method explained by Bachstetter et al. (2014). The test was repeated 3 times for each mouse, 30 min after injection of the novel compounds ([29]).

mice [5] = assay: Elevated plus maze test; type: in vivo; conditions: Mus musculus, percentage of time spent in open arms, read-out: ED50 (95% CI), Elevated plus maze test
Method: To assay the anti-anxiety effects of novel synthesized compounds, the elevated plus-maze test was used. The apparatus of the elevated plus-maze test is prepared of two open arms (30 × 5 × 0.5 cm) and two close arms (30 × 5 × 35 cm) with an open roof and was set at a height of 50 cm above the floor.

[6] = tested on: pentylenetetrazol-induced seizure; assay: Pentylenetetrazol (PTZ) test; type: in vivo; conditions: Mus musculus, 0.5 h; mice, 30 min after administration; number of dead animals; read-out: ED50 (95% CI), PTZ test
Excerpt: as §1

benzodiazepine receptor = assay: Radioligand competition binding with [3H]-flumazenil; conditions: rat brain membrane; for IC50: 35 min at 30 °C, read-out: IC50 (95% CI); for Ki: Cheng-Prussof equation
Method: Temporarily, the brain tissue of Male Sprague-Dawley rats (200-250 g weight) were used as the source of the benzodiazepine receptors. These tissues were collected, homogenized in 20 mL of ice‐cold Tris‐HCl buffer and centrifuged at 600 g for 10 min. in the next step, the supernatant was centrifuged 37000xg for 15 min at 4 °C. […] The Bradford method using bovine serum albumin as a standard, was applied for quantification of protein in the separated membrane. Saturation and competition experiments are two basic methods of receptor binding studies. […] NSB was determined in parallel assays performed in the presence of 100 μM diazepam. Competition experiments were used to measure the percentage inhibition of radioligand specific binding (IC50) and affinity (Ki) of the novel synthesized ligands and diazepam, using the Cheng-Prussof equation.

mice [7] = assay: Rotarod test; type: in vivo; conditions: 30 min after injection, 6 rpm, 1 min, Diazepam 2 mg/kg
Method: For evaluation of the motor coordination and balance capability, the rotarod test was used. Concisely, 30 min after injection of the novel compounds and Diazepam (2 mg/kg), each animal was located on a rotating rod (6 rpm, 1 min). In this experiment, the average time latency to fall for each animal was noted ([33]).

mice [8] = assay: Passive avoidance test; type: in vivo; conditions: Diazepam 2 mg/kg
Excerpt: To determine the effects of novel synthesized compounds on learning and memory disorder, the passive avoidance test was done. The passive avoidance apparatus consists of two compartments, that one of them is brightly lit (white compartment) and another one is dimly lit (black compartment). A sliding door divides these two compartments. […] After arriving in the black compartment, it was received a mild unpleasant electrical stimulation (0.5 mA for 2 s) through the grid floor. During the test phase, the animal was relocated in the white compartment. However, there was no electric stimulation in the dark compartment. The latency to enter the dark compartment was recounted ([34],[35]).

[9] = mice, 30 min after injection, maximum force

## O=C(Nc1ccccc1-c1nnc(-c2ccccc2)o1)c1ccc(Cl)cc1 [Compound 7b, 4-chloro-N-(2-(5-phenyl-1,3,4-oxadiazol-2-yl)phenyl)benzamide]
other
  melting point: 195 to 197 °C
Mice [1]
  ED50: 19.4 mg/kg
[2]
  ED50: 163 mg/kg
Mice [3]
  ED50: 21.3 mg/kg
Mice [4]; [9]
  ED50: 31.5 mg/kg
Mice [5]
  ED50: 11.8 mg/kg
[6]
  ED50: 180 mg/kg
Benzodiazepine receptor
  IC50: 7.62 nM
  Ki: 4.43 nM

## CN1C(=O)CN=C(c2ccccc2)c2cc(Cl)ccc21 [Diazepam, reference compound]
Mice [7]
  latency to fall in rotarod test vs control: significant decrease in latency to fall
Mice [1]
  ED50: 1.98 mg/kg
[2]
  ED50: 1.32 mg/kg
Mice [3]
  ED50: 1.69 mg/kg
Mice [4]
  ED50: 2.27 mg/kg
Mice [5]
  ED50: 2.24 mg/kg
Mice [8]
  latency to enter the dark compartment in passive avoidance test vs control: significant reduction in latency to enter the dark compartment
[6]
  ED50: 1.01 mg/kg
Benzodiazepine receptor
  IC50: 1.71 nM
  Ki: 0.99 nM

## O=C(Nc1ccccc1-c1nnc(-c2ccccc2)o1)c1ccc(F)cc1 [Compound 7c, 4-fluoro-N-(2-(5-phenyl-1,3,4-oxadiazol-2-yl)phenyl)benzamide]
other
  melting point: 189 to 190 °C
Mice [1]
  ED50: 17.1 mg/kg
[2]
  ED50: 105 mg/kg
Mice [3]
  ED50: 19.7 mg/kg
Mice [4]; [9]
  ED50: 30.9 mg/kg
Mice [5]
  ED50: 13.7 mg/kg
[6]
  ED50: 118 mg/kg
Benzodiazepine receptor
  IC50: 6.05 nM
  Ki: 3.51 nM

## O=C(Nc1ccccc1-c1nnc(-c2ccccc2)o1)c1ccc([N+](=O)[O-])cc1 [Compound 7e, 4-nitro-N-(2-(5-phenyl-1,3,4-oxadiazol-2-yl)phenyl)benzamide]
other
  melting point: 195 to 197 °C
Mice [1]
  ED50: 19.6 mg/kg
[2]
  ED50: 24.2 mg/kg
Mice [3]
  ED50: 19.1 mg/kg
Mice [4]; [9]
  ED50: 25.7 mg/kg
Mice [5]
  ED50: 9.96 mg/kg
[6]
  ED50: 45.2 mg/kg
Benzodiazepine receptor
  IC50: 9.16 nM
  Ki: 5.32 nM

## Cc1ccc(C(=O)Nc2ccccc2-c2nnc(-c3ccccc3)o2)cc1 [Compound 7d, 4-methyl-N-(2-(5-phenyl-1,3,4-oxadiazol-2-yl)phenyl)benzamide]
other
  melting point: 200 to 202 °C
Mice [1]
  ED50: 13.1 mg/kg
[2]
  ED50: 92.5 mg/kg
Mice [3]
  ED50: 18.8 mg/kg
Mice [4]; [9]
  ED50: 29.4 mg/kg
Mice [5]
  ED50: 12.6 mg/kg
[6]
  ED50: 109 mg/kg
Benzodiazepine receptor
  IC50: 4.26 nM
  Ki: 2.47 nM

## O=C(O)c1ccccc1C(=O)Nc1ccccc1-c1nnc(-c2ccccc2)o1 [Compound 7i, 2-((2-(5-phenyl-1,3,4-oxadiazol-2-yl)phenyl)carbamoyl)benzoic acid]
other
  melting point: 196 to 198 °C
Mice [1]
  ED50: 4.64 mg/kg
[2]
  ED50: 26.7 mg/kg
Mice [3]
  ED50: 7.14 mg/kg
Mice [4]; [9]
  ED50: 13.2 mg/kg
Mice [5]
  ED50: 8.71 mg/kg
[6]
  ED50: 45.1 mg/kg
Benzodiazepine receptor
  IC50: 1.54 nM

## CCC(=O)Nc1ccccc1-c1nnc(-c2ccccc2)o1 [Compound 7h, N-(2-(5-phenyl-1,3,4-oxadiazol-2-yl)phenyl) propionamide]
other
  melting point: 163 to 165 °C
Mice [1]
  ED50: 5.28 mg/kg
[2]
  ED50: 118 mg/kg
Mice [3]
  ED50: 10.1 mg/kg
Mice [4]; [9]
  ED50: 24.6 mg/kg
Mice [5]
  ED50: 11.8 mg/kg
[6]
  ED50: 136 mg/kg
Benzodiazepine receptor
  IC50: 2.57 nM
  Ki: 1.49 nM

## CC(=O)Nc1ccccc1-c1nnc(-c2ccccc2)o1 [Compound 7g, N-(2-(5-phenyl-1,3,4-oxadiazol-2-yl)phenyl)acetamide]
other
  melting point: 155 to 157 °C
Mice [1]
  ED50: 9.45 mg/kg
[2]
  ED50: 186 mg/kg
Mice [3]
  ED50: 14 mg/kg
Mice [4]; [9]
  ED50: 28.8 mg/kg
Mice [5]
  ED50: 12.8 mg/kg
[6]
  ED50: 147 mg/kg
Benzodiazepine receptor
  IC50: 2.78 nM
  Ki: 1.61 nM

## COc1ccc(C(=O)Nc2ccccc2-c2nnc(-c3ccccc3)o2)cc1 [Compound 7f, 4-methoxy-N-(2-(5-phenyl-1,3,4-oxadiazol-2-yl)phenyl)benzamide]
other
  melting point: 216 to 217 °C
Mice [1]
  ED50: 9.91 mg/kg
[2]
  ED50: 136 mg/kg
Mice [3]
  ED50: 14.5 mg/kg
Mice [4]; [9]
  ED50: 26.7 mg/kg
Mice [5]
  ED50: 12.7 mg/kg
[6]
  ED50: 136 mg/kg
Benzodiazepine receptor
  IC50: 3.03 nM
  Ki: 1.76 nM

## O=C(O)CCC(=O)Nc1ccccc1-c1nnc(-c2ccccc2)o1 [Compound 7j, 4-oxo-4-((2-(5-phenyl-1,3,4-oxadiazol-2-yl)phenyl)amino)butanoic acid]
other
  melting point: 159 to 160 °C
Mice [1]
  ED50: 4.98 mg/kg
[2]
  ED50: 40.8 mg/kg
Mice [3]
  ED50: 8.9 mg/kg
Mice [4]; [9]
  ED50: 17.1 mg/kg
Mice [5]
  ED50: 9.77 mg/kg
[6]
  ED50: 60.9 mg/kg
Benzodiazepine receptor
  IC50: 1.66 nM
  Ki: 0.96 nM

## O=C(Nc1ccccc1-c1nnc(-c2ccccc2)o1)c1ccccc1 [Compound 7a, N-(2-(5-phenyl-1,3,4-oxadiazol-2-yl)phenyl)benzamide]
other
  melting point: 188 to 189 °C
Mice [1]
  ED50: 22.7 mg/kg
[2]
  ED50: 235 mg/kg
Mice [3]
  ED50: 27.7 mg/kg
Mice [4]; [9]
  ED50: 34.9 mg/kg
Mice [5]
  ED50: 15.3 mg/kg
[6]
  ED50: 276 mg/kg
Benzodiazepine receptor
  IC50: 10.2 nM
  Ki: 5.95 nM

From publication PMC8842605, “Novel Derivatives of diphenyl-1,3,4-oxadiazol as Ligands of Benzodiazepine Receptors; Synthesize, Binding Assay and Pharmacological Evaluation” (Iranian Journal of Pharmaceutical Research : IJPR, 2021)
